Test results as given in US8409550B2, “Method for treating skin with retinoids and retinoid boosters” (Unilever Home & Personal Care, USA, Division of Conopco, …, priority 2000, dated 2013).
Several values for one entry are separate records, joined by “and”; a condition that tells them apart may be missing. Equal values may be shown once. Read-outs that look alike come from different tables or passages of the source. Values belong to the compound of their own block, whether it stands above or below them.

Legend:
ARAT = assay: Assay for ARAT activity, bovine RPE microsomes (to identify B1); assay type: biochemical; settings: for % Inhibition ARAT (100 jm): compound 100 jm
[1] = system: transglutaminase (TGase I); assay: Transglutaminase (Tgase) ELISA assay in cultured keratinocytes with retinol and boosters; assay type: cell-based, human; settings: for TG as % C Compd 1 / TG as % C, Compd 3 / TG as % C Compd 2: concentration one log below IC20; for IC20: IC20 (80% of control); for TG as % C, Compd 3: Compound 3 alone; for Tgase levels (Mean): with 10^-7 M retinol
LRAT = molecular target: T1, LRAT (Bos taurus, UniProt Q9BGL2); assay: Assay for LRAT activity, bovine RPE microsomes (to identify B1); assay type: biochemical
T1 construct: followed by approximately 15 μg of RPE microsomal protein; tissue W. L. Lawson Co., Lincoln, Nebr., USA (eyecups); host or cells: bovine retinal pigment epithelium microsomes
T1 sequence (Q9BGL2 1-230): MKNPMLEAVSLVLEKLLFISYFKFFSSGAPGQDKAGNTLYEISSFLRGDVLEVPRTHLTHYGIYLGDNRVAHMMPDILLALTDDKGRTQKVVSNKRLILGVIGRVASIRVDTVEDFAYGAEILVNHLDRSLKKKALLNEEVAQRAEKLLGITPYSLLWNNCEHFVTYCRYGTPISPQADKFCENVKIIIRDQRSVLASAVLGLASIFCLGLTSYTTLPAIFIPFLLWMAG

[2] = Compound 1 alone, in the presence of 10^-7M retinol
[3] = compound tested individually in the presence of 10^-7 M retinol
[4] = B1 table, booster concentration which with 10^−7 M retinol inhibits TGase by 50%, same values in the 19th table (Molar), read-out: Overall TG (IC 50)
[5] = Tgase inhibition, compound tested individually in the presence of 10^-7 M retinol, read-out: IC50
[6] = in the presence of 10^-7M retinol
[7] = Compound 2 alone, in the presence of 10^-7M retinol

Compound: CC(C)(O)CCCC1=CCC(C=O)CC1 (stereo not shown) [Lyral]
% Inhibition ARAT (100 jm) (ARAT): 76%
TG as % C Compd 1 [1, 2]: 97 % C
IC20 [1, 3]: 40 µM
TG as % C Compd 1 ([1]; compound 1 alone, with retinol): 120 % C

Compound: CCCCCCCCCCC(O)C(=O)NCCO (stereo not shown) [Hydroxyethyl-2-Hydroxy-C12 Amide, N-Hydroxyethyl-2-hydroxydodecyl amide]
IC50 [1, 4]: 32.9 µM
IC20 [1, 3]: 24 µM
IC50 [1, 5]: 32.9 µM

Compound: CCCCC/C=C\C/C=C\C/C=C\C/C=C\CCCC(=O)[O-].[Na+] [Arachidonic Acid (Na+ salt)]
TG as % C, Compd 3 [1, 6]: 78 % C

Compound: CCCCC/C=C\C/C=C\CCCCCCCC(=O)NCCCN(C)C [Linoleamidopropyl Dimethylamine]
% Inhibition ARAT (100 jm) (ARAT): 69% +/− 18

inhibition at 100 µM (LRAT; compound 100 jm): 0%
Compound: C=CC(C)(O)CCC=C(C)C (stereo not shown) [Linalool]

Compound: CCCCC/C=C\C/C=C\CCCCCCCC(=O)NCCO [Linoleoyl Monoethanolamide]
IC50 [1, 4]: 16.1 µM
IC20 [1, 3]: 14.8 µM
IC50 [1, 5]: 16.1 µM

Compound: CC(/C=C/C=C(\C)C(=O)O)=C\C=C\C=C(C)\C=C\C=C(/C)C(=O)O [Crocetin]
% Inhibition ARAT (10 jm) (ARAT; compound 10 jm): 15%
% Inhibition ARAT (100 jm) (ARAT): 34%
TG as % C, Compd 3 [1, 6]: 90 % C
IC20 [1, 3]: 25.2 µM

% Inhibition Overall TG (—ROH/RE) ([1]; % (booster+retinol inhibition/control inhibition) − % (ROH inhibition/control inhibition)): 22%
TG as % C Compd 1 ([1]; compound 1 alone, with retinol): 99 % C
Compound: Dimethyl Imidazolidinone

% Inhibition LRAT (10 jm) (LRAT; compound 10 jm): 29%
% Inhibition LRAT (100 jm) (LRAT; compound 100 jm): 79%
Compound: Damascenone

IC50 [1, 4]: 32.5 µM
IC50 [1, 5]: 32.5 µM
TG as % C Compd 1 ([1]; compound 1 alone, with retinol): 110 % C
TG as % C Compd 1 ([1]; compound 1 alone, with retinol, listed as Caster oil MEA): 96 % C
Compound: Castor Oil MEA

TG as % C Compd 2 ([1]; compound 2 alone, with retinol): 102 % C
Compound: O=C1CCc2ccccc2N1 [3,4-dihydro-2 quinolinone, 3,4,-Dihydro-2(1H)-quinolinone(Hydrocarbostyril)]

TG as % C, Compd 3 [1, 6]: 95 % C
Compound: CCCCCCCCCCCCCCCC(=O)NCCO [Palmitamide Monoethanolamide]

Compound: COc1cc(NS(C)(=O)=O)ccc1Nc1c2ccccc2nc2ccccc12 [Amsacrine, reference compound]
TG as % C Compd 1 [1, 2]: 79 % C
TG as % C Compd 2 [1, 7]: 79 % C
IC20 [1, 3]: 3.3 µM
TG as % C Compd 1 ([1]; compound 1 alone, with retinol): 102 % C

IC50 [1, 5]: 65 µM
Compound: CCCCCCCC/C=C/CCCCCCCC(=O)O [Elaidic Acid]
TG as % C Compd 1 [1, 2]: 93 % C
TG as % C, Compd 3 [1, 6]: 93 % C
IC20 [1, 3]: 58.8 µM
TG as % C Compd 2 ([1]; compound 2 alone, with retinol): 144 % C

Compound: CC12CCC(C1)C(C)(C)C2O (stereo not shown) [Fenchyl Alcohol]
% Inhibition ARAT (100 jm) (ARAT): 12%

Compound: CCCCC/C=C/C/C=C/CCCCCCCC(=O)NC(C)c1ccccc1 (stereo not shown) [Melinamide, reference compound]
% Inhibition ARAT (100 jm) (ARAT): 64% +/− 15

Compound: CC(=O)c1cc2c(cc1C)C(C)(C)[C@H](C)[C@H]2C(C)C [Traseolide]
% Inhibition ARAT (100 jm) (ARAT): 41%

% Inhibition LRAT (100 jm) (LRAT; compound 100 jm): 49%
Compound: Ethyl Saffranate

TG as % C Compd 1 [1, 2]: 81 % C
Tgase levels (Mean) ([1]; booster 1.6E−04 Molar): 58.1 % of control
Tgase levels (Mean) ([1]; booster 1.78E−05 Molar): 104 % of control
Tgase levels (Mean) ([1]; booster 1.79E−9 Molar): 82 % of control
Tgase levels (Mean) ([1]; booster 1.98E−06 Molar): 110 % of control
Tgase levels (Mean) ([1]; booster 2.19E−09 Molar): 88.6 % of control
Tgase levels (Mean) ([1]; booster 4.39E−08 Molar): 127.3 % of control
Tgase levels (Mean) ([1]; booster 5.33E−05 Molar): 95.4 % of control
Tgase levels (Mean) ([1]; booster 5.93E−06 Molar): 129 % of control
Tgase levels (Mean) ([1]; booster 6.58E−07 Molar): 92.8 % of control
Tgase levels (Mean) ([1]; booster 8.78E−09 Molar): 119 % of control
TG as % C Compd 1 ([1]; compound 1 alone, with retinol): 123 % C and 95 % C and 106 % C
Compound: CCCCCCCC(=O)OC[C@H](COP(=O)(O)OCCN)OC(=O)CCCCCCC [1,2-dioctanoyl-sn-glycero-3-phosphoethanolamide]

TG as % C, Compd 3 [1, 6]: 88 % C
Compound: CC(=O)/C=C/C1C(C)=CCCC1(C)C (stereo not shown) [a-Ionone]

% Inhibition LRAT (100 jm) (LRAT; compound 100 jm): 38%
Compound: Gamma-Methyl Ionone

Compound: CC(=O)c1cc2c(cc1C)C(C)(C)C(C)CC2(C)C (stereo not shown) [Tonalid]
% Inhibition ARAT (100 jm) (ARAT): 50%

Compound: O=C1C[C@@H](c2ccc(O)cc2)Oc2cc(O)cc(O)c21 [Naringenin]
% Inhibition ARAT (100 jm) (ARAT): 33%
TG as % C, Compd 3 [1, 6]: 94 % C
TG as % C Compd 1 ([1]; compound 1 alone, with retinol): 95 % C

Compound: CC1=C(/C=C/C(C)=C/C=C/C(C)=C/CO)C(C)(C)CCC1 [retinol, All-trans-retinol, reference compound]
inhibition of transglutaminase production (maximal) ([1]; 1 μM retinoid, day 2, keratinocytes 4000 cells/well): 55%

IC50 [1, 4]: 28 µM
TG as % C Compd 1 [1, 2]: 62 % C
IC20 [1, 3]: 10.8 µM
IC50 [1, 5]: 28 µM
TG as % C Compd 1 ([1]; compound 1 alone, with retinol, listed as Oleoyl beatine): 96 % C
TG as % C Compd 1 ([1]; compound 1 alone, with retinol, listed as Oleoyl betaine): 99.5 % C
Compound: Oleyl Betaine
% Inhibition ARAT (100 jm) (ARAT): 47%

Compound: CCCCC/C=C\C/C=C\CCCCCCCC(=O)NCCO [Linoleoyl Monoethanolamide (LAMEA)]
TG as % C, Compd 3 [1, 6]: 127 % C

Compound: CC(C)CCCCCCCCCCCCCCC(=O)O [Isostearic Acid]
TG as % C Compd 2 [1, 7]: 87 % C
IC20 [1, 3]: 62.3 µM
TG as % C Compd 2 ([1]; compound 2 alone, with retinol): 146 % C
